Data as given in PubChem BioAssay (NCI).
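How tested: cells in 96-well plates exposed to compound for 48 hours at five concentrations. GI50 is the concentration that inhibits growth by half. TGI: total growth inhibition.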

Tests used:
Assay in all cases: growth of human tumour cells (NCI), 48 h
NCI/ADR-RES ovarian = test system: NCI/ADR-RES ovarian
SW-620 colon = test system: SW-620 colon
MDA-MB-231 breast = test system: MDA-MB-231 breast
MOLT-4 leukemia = test system: MOLT-4 leukemia
MALME-3M melanoma = test system: MALME-3M melanoma
SF-295 CNS = test system: SF-295 CNS
HCC-2998 colon = test system: HCC-2998 colon
SK-MEL-2 melanoma = test system: SK-MEL-2 melanoma
COLO 205 colon = test system: COLO 205 colon
NCI-H226 lung = test system: NCI-H226 lung

Structure (SMILES) | GI50 (NCI/ADR-RES ovarian) [µM] | TGI (NCI/ADR-RES ovarian) [µM] | GI50 (SW-620 colon) [µM] | TGI (SW-620 colon) [µM] | GI50 (MDA-MB-231 breast) [µM] | TGI (MDA-MB-231 breast) [µM] | GI50 (MOLT-4 leukemia) [µM] | TGI (MOLT-4 leukemia) [µM] | GI50 (MALME-3M melanoma) [µM] | TGI (MALME-3M melanoma) [µM] | GI50 (SF-295 CNS) [µM] | TGI (SF-295 CNS) [µM] | GI50 (HCC-2998 colon) [µM] | TGI (HCC-2998 colon) [µM] | GI50 (SK-MEL-2 melanoma) [µM] | TGI (SK-MEL-2 melanoma) [µM] | GI50 (COLO 205 colon) [µM] | TGI (COLO 205 colon) [µM] | GI50 (NCI-H226 lung) [µM] | TGI (NCI-H226 lung) [µM]
NCCCN1CCN(CCCNc2nc3ccccc3c3[nH]c4ccccc4c23)CC1 | 3.1 | 22 | 0.326 | 7.66 | 0.456 | 1.72 | 0.155 | 4.02 | 2.3 | 4.96 | 0.474 | 1.83 | 0.0895 | 0.758 | 0.567 | 1.1 | 0.214 | 1.05 | 0.442 | 1.1
CCOc1nccc2c1nc(-c1nonc1N)n2CC | > 25 | > 25 | > 25 | > 25 | > 25 | > 25 | > 25 | > 25 | > 25 | > 25 | > 25 | > 25 | > 25 | > 25 | > 25 | > 25 | > 25 | > 25 | > 23.1 | > 25
CC(C)C[C@H](NC(=O)CCn1ccc2ncccc2c1=O)B(O)O | > 100 | > 100 | 4.23 | > 45.9 | 9.73 | 46.6 | 2.9 | > 28.7 | 5.2 | 48.9 | 11.5 | 43.9 | 12.9 | 30.2 | 11 | > 79.2 | 10.3 | > 100 | 2.22 | 6.13
O=C(CNc1ccc2c(=S)c3ccccc3[nH]c2c1)Nc1ccccc1-c1ccccc1NC(=O)CNc1ccc2c(=S)c3ccccc3[nH]c2c1 | – | > 63 | – | 39.5 | – | > 51.7 | – | 46.7 | – | 31.7 | – | 50.8 | – | 31.5 | – | 34.4 | – | 35.8 | – | 54.6
Cc1cc(N(CCCNc2ccnc3cc(Cl)ccc23)Cc2ccc3c(c2)OCO3)nc(N2CCCCC2)n1 | 2.43 | 8.03 | – | – | 1.88 | 4.06 | – | – | 1.97 | 3.75 | 1.59 | 3.39 | 2.09 | 4.79 | 1.94 | 3.77 | 1.66 | 3.33 | 4.03 | 20.5
COc1ccc(-c2cc(-c3cccc(NS(C)(=O)=O)c3)nc(N)c2C#N)cc1 | 0.0603 | 1.1 | 0.048 | > 100 | 0.335 | 5.14 | 0.235 | > 100 | 0.0417 | 21.8 | 0.0497 | 2.87 | 0.185 | 2.44 | 0.119 | 14.6 | 0.0747 | 0.607 | 0.0725 | 28.2
O=C(COc1cccc(/C=C2\Oc3ccc4ccccc4c3C2=O)c1)c1ccc(Cl)cc1 | > 100 | > 100 | 11.7 | 88.3 | 43.5 | > 100 | 3.13 | 11.1 | 22.4 | > 100 | > 100 | > 100 | > 100 | > 100 | > 100 | > 100 | 33.6 | > 100 | 70.6 | > 100
N#C/C(=C\c1c(-c2ccccc2)[nH]c2ccccc12)C(=O)c1ccccc1 | 3.11 | > 100 | 2.97 | > 100 | 13.2 | > 100 | – | – | 12.3 | > 100 | 3 | > 100 | 14.5 | > 100 | 35.2 | > 100 | 5.02 | > 100 | 6.83 | > 100
COc1cccc(CCC(=O)c2cc3c(N)c(C(=O)Nc4cccc(Cl)c4C)sc3nc2C)c1 | 0.388 | 10.4 | 0.469 | > 100 | 1.4 | > 78.6 | 0.77 | > 100 | 0.469 | > 100 | 0.407 | 20.1 | 2.18 | > 50.8 | 1.36 | > 100 | 0.661 | > 45.9 | 1.45 | 32.7
